This note sets out measurements from the METLIN SMRT retention time set (Domingo-Almenara et al. 2019).

The nature of this data set: gradient 5% acetonitrile 3 min, to 50% in 2 min, to 85% in 15 min, held 3 min, 100 µL/min. The following applies: column: Zorbax Extend-C18 2.1 x 50 mm; eluents: water / acetonitrile, 0.1% formic acid. Summed up:
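Pure standards were analyzed in mixtures of ~100 molecules using HPLC coupled to a quadrupole time-of-flight mass spectrometer, in both positive and negative ionization mode. Separation used a Zorbax Extend-C18 column (2.1 × 50 mm, 1.8 μm) at 100 μL/min, with water and acetonitrile each containing 0.1% formic acid. Dead and dwell volumes were 40 μL and 900 μL, and data were collected over 3 months. Retention time was read from computationally picked adduct peaks, each inspected manually.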
`CCCCOC(=O)c1ccc(Nc2c(C(=O)N(CC)CC)cnc3nc(C)ccc23)cc1` returned an RP-LC retention time of 720 s.

As for `Cc1cc(N2CCOCC2)nc(N2CCN(C(=O)CCC3CCCCC3)CC2)n1`, the RP-LC retention time was 714 s.

In the case of `CNC(=O)c1cc(C)nc2c(C)cc(C)cc12`, the RP-LC retention time was 568 s.

On to `Cc1cc(C)n2nc(SCC(=O)N(C)Cc3ccccc3)nc2n1`, for which the RP-LC retention time turned out to be 710 s.

The compound `Cc1ccc(S(=O)(=O)N2CCC3(CC2)NCCN=C3NCc2cccc(F)c2)cc1C` displayed an RP-LC retention time of 745 s.

Take `CN(C)CCCNC(=O)c1ccc2c(c1)nc1n2CCN(C2CCCCC2)C1=O`: the RP-LC retention time was 605 s.

As for `Cc1ccsc1C(=O)Nc1ccc(SCc2nnc(-c3ccc4c(c3)OCO4)o2)cc1`, the RP-LC retention time worked out at 978 s.

Regarding `Cc1csc(-c2cc(S(=O)(=O)NCCCc3ccccc3)c(C)s2)n1`, the RP-LC retention time came to 1080 s.

`O=C(Nc1ccccc1)N1CCC(CCOc2cccnc2)CC1` had an RP-LC retention time of 638 s.

As for `CCOC(=O)c1c(C)oc2nc(C)nc(NCc3ccc4c(c3)OCO4)c12`, the RP-LC retention time came to 1100 s.

Turning to `CCOc1ccccc1C(=O)Nc1nnc(SC(C)c2ccccc2)s1` (centres undefined), the RP-LC retention time amounted to 1140 s.

In turn, `CCc1ccc(-c2ccc(=O)n(CCc3nc(-c4cccc(C)c4)no3)n2)cc1` displayed an RP-LC retention time of 1180 s.

In turn, `Cc1cc(NC(=O)Nc2ccc3c(ccn3C)c2)sn1` gave an RP-LC retention time of 736 s.

In the case of `C#CC(C)(CC)OCC(O)CN1C(C)(C)CC(O)CC1(C)C` (centres undefined), the RP-LC retention time was 568 s.

Take `CCc1ccc(C(C)NC(=O)c2cccc(C3CCCN(C(=O)NC(C)C)C3)c2)cc1` (centres undefined): the RP-LC retention time stood at 1010 s.

Turning to `Cc1sc(-c2noc(C3CC3)n2)cc1S(=O)(=O)N1CCC(C(=O)NC2CCCCCC2)CC1`, the RP-LC retention time amounted to 1080 s.

`CCN(CC)C(=O)Cn1nc2cc(C)nc(-c3cccc(Cl)c3)n2c1=O`: the RP-LC retention time amounted to 790 s.

Regarding `Cc1ccc(-c2csc(NC(=O)CCCc3nc(-c4ccccc4Cl)no3)n2)cc1`, the RP-LC retention time was 1180 s.

`O=C(NCc1cscn1)C1CCN(S(=O)(=O)c2cccc3nsnc23)CC1` yielded an RP-LC retention time of 659 s.

For the compound `COc1ccc(OC)c(NC(=O)Cn2nc3n(c2=O)CCCCC3)c1`, the RP-LC retention time was found to be 715 s.

For the compound `Cc1ccccc1Cn1c(CN2CCC(C(=O)NCCC3=CCCCC3)CC2)cc2ccccc21`, the RP-LC retention time was 928 s.

The compound `Cc1cc(C)n(Cc2ccc(C(=O)N3CCCN(c4cc(=O)n(C(C)C)c(=O)n4C(C)C)CC3)o2)n1` gave an RP-LC retention time of 768 s.

Regarding `COC(=O)c1cccc(NC(=O)N2CCN(Cc3nc4ccc(Cl)cc4o3)CC2)c1`, the RP-LC retention time was 756 s.

As to `Cc1cccc(-c2nc(CNC(=O)C(C)(C)C)no2)c1`, the RP-LC retention time stood at 826 s.

For the compound `CCOc1ccc(-n2c(-c3ccc(Cl)cc3)cn3c4c(=O)n(C)c(=O)n(C)c4nc23)cc1`, the RP-LC retention time is 1050 s.

`Cc1ccc(NC(=O)C2CCCN(S(=O)(=O)c3c[nH]c(C(=O)N4CCCC4)c3)C2)cc1` (centres undefined) gave an RP-LC retention time of 850 s.

For `COc1cc(OC)cc(C(=O)N2CCN(c3cc(C)n4c(C)nnc4n3)CC2)c1`, the RP-LC retention time stood at 601 s.

The compound `CC1CCN(C(=O)C2=CN(c3ccc(N(C)C)cc3)c3ccccc3S2(=O)=O)CC1` returned an RP-LC retention time of 978 s.

The compound `CCOc1nc2ccccc2nc1N1CCCC(C(=O)Nc2ccc(F)cc2)C1` (centres undefined) had an RP-LC retention time of 1190 s.

`O=C(NCCc1nc2cccnc2n1Cc1ccccc1)NCc1ccco1` came in with an RP-LC retention time of 678 s.

`O=C(Cn1cnc(-c2noc(-c3ccncc3)n2)c1)N1CCc2ccccc21` had an RP-LC retention time of 634 s.

The compound `CCOc1ccc(Cc2nc(-c3ccc4oc(CC)nc4c3)no2)cc1` had an RP-LC retention time of 1130 s.

As for `Cc1ccc(C)c(NC(=O)N2CCc3nc(-c4ccc(F)cc4)ncc3C2)c1`, the RP-LC retention time came to 987 s.

`COC(=O)c1ccc2c(=O)n(-c3ccccc3)c(N3CCC(C(N)=O)CC3)nc2c1` showed an RP-LC retention time of 693 s.

Compound `Cc1ccc(S(=O)(=O)N2CCC(CN3CCCC(C)C3)CC2)cc1F` (centres undefined) had an RP-LC retention time of 702 s.

In the case of `CNC(=O)[C@@H]1C[C@H](Oc2ccccc2)CN1C(=O)c1n[nH]c(=O)c2ccccc12`, the RP-LC retention time was 650 s.

With `CCCC(=O)Nc1ccc2c(c1)CN(C(=O)Cc1cccs1)C(C(=O)N(C)C)C2` (centres undefined), the RP-LC retention time was determined as 690 s.

For `CC(C)NC(=O)c1ccc(OCC2CCN(C(=O)Cc3cccc(F)c3)CC2)cc1`, the RP-LC retention time stood at 845 s.

Turning to `CCOc1cccc(-c2noc(Cn3ncn4nc(-c5ccc(Br)cc5)cc4c3=O)n2)c1`, the RP-LC retention time stood at 1310 s.

On to `Cc1onc(-c2ccncc2)c1C(=O)NCCN(C)C1CCCCC1`, for which the RP-LC retention time came to 575 s.

On to `COc1ccc(OCC(=O)N2CCN(c3cc(=O)n(C)c(=O)n3C)CC2)cc1`, for which the RP-LC retention time was 655 s.

For `CCCCn1c(=O)c2ccccc2n(Cc2nc(-c3ccc(F)cc3)no2)c1=O`, the RP-LC retention time worked out at 1170 s.

For the compound `COc1ccc(NC(=O)Cn2nc3cc(C)nc(N4CCCC4)n3c2=O)cc1`, the RP-LC retention time worked out at 709 s.

`CCn1c(=O)n(CC)c2cc(S(=O)(=O)c3ccc(OC)cc3)c(NC(=O)C(C)C)cc21`: the RP-LC retention time was determined as 836 s.

Take `Cc1ccc2c(c1)N(Cc1nc(-c3ccc(F)c(Cl)c3)no1)C(=O)CO2`: the RP-LC retention time amounted to 1200 s.

On to `Cc1cccc(NC(=O)N2CCC3(CC2)N=C(c2ccccc2)C(=O)N3)c1`, for which the RP-LC retention time came out at 806 s.

`Cc1ccc(Nc2c(-c3ccccc3)nc3ccc(Cl)cn23)cc1` gave an RP-LC retention time of 787 s.

The compound `O=C(C1CCN(c2cnn(Cc3ccccc3)c(=O)c2)CC1)N1CCc2ccccc2C1` showed an RP-LC retention time of 829 s.

On to `CCn1c(SC)nnc1-c1nn(C)c2c1CN(C(=O)C1CCCCC1)CC2`, for which the RP-LC retention time turned out to be 815 s.

Consider `CCc1cc2c(cc(C(=O)NCc3ccccc3)n2C)s1`, for which the RP-LC retention time was found to be 1060 s.

`Cc1nn(CC(=O)NCCCN2CCCC2)c(=O)c2cc(-c3ccccc3)nn12`: the RP-LC retention time was 587 s.

`COc1cc(NC(=O)CN2C(=O)C(C)(C)c3cc(Cl)ccc32)cc(OC)c1OC` returned an RP-LC retention time of 867 s.

In turn, `Nc1ccc(Nc2nc(-c3ccc(Cl)cc3)cs2)cc1` came in with an RP-LC retention time of 947 s.

Compound `Cc1cc(Cl)ccc1NC(=O)N1CCC(n2cnnc2C2CC2)C1` (centres undefined) displayed an RP-LC retention time of 661 s.

On to `CCCCNC(=O)C1CCCN(C(=O)c2[nH]c(C)c(C(=O)OCC)c2C)C1` (centres undefined), for which the RP-LC retention time came out at 756 s.

`CCN1C(=O)c2cc(S(=O)(=O)NCc3ccccc3)ccc2Oc2cccnc21`: the RP-LC retention time worked out at 986 s.

`CCCn1cnnc1C1CCCCN1C(=O)CCc1c(C)nn(C)c1C` (centres undefined) returned an RP-LC retention time of 589 s.

Take `CCOC(=O)C1CCN(C(=O)CCn2c(=O)oc3ccccc32)CC1`: the RP-LC retention time was found to be 708 s.

For the compound `O=C(NCc1csc(-c2ccccc2)n1)C1CCN(S(=O)(=O)c2ccc3c(c2)CCCC3)CC1`, the RP-LC retention time came to 1100 s.

Regarding `CCC(C)C(NC(=O)c1ccccc1)C(=O)Nc1nc2ccccc2[nH]1` (centres undefined), the RP-LC retention time worked out at 718 s.

Regarding `CCOc1ccc(C(=O)N2CCN(S(=O)(=O)c3cc4c5c(c3)CCC(=O)N5CCC4)CC2)cc1`, the RP-LC retention time was determined as 815 s.

`Cc1nc2cc(-c3noc(CNC(=O)c4ccccc4)n3)ccc2n(C)c1=O` had an RP-LC retention time of 718 s.

In the case of `CC(CCc1ccccc1)NC(=O)CCC(=O)N1CCc2c(c(C(=O)N3CCOCC3)nn2C)C1` (centres undefined), the RP-LC retention time was 679 s.

Consider `Cc1cc(F)ccc1NS(=O)(=O)c1cc2c(s1)CCN(C(=O)C1CC1)C2`, for which the RP-LC retention time is 839 s.

The compound `CCS(=O)(=O)Nc1ccc2nc(N3CCN(c4ccccc4OC)CC3)cc(C(=O)O)c2c1` gave an RP-LC retention time of 633 s.

As to `Cc1cc(-c2nnc(-c3ccccc3)o2)c(C)n1CC(=O)NC1CCCC1`, the RP-LC retention time stood at 886 s.

`CC(C)NC(=O)c1cccnc1N1CCSCC1` gave an RP-LC retention time of 662 s.

As to `CCCNc1cc(N2CCC(CCC(=O)NCCN3CCc4ccccc4C3)CC2)ncn1`, the RP-LC retention time is 574 s.

In turn, `O=C(NCCc1ccccc1)c1ccc2c(c1)NC(=O)C1CCCCN21` (centres undefined) showed an RP-LC retention time of 806 s.

`Cc1nc(-c2csc(S(=O)(=O)N3CCC(C(=O)N4CCC(C)CC4)CC3)c2)no1` gave an RP-LC retention time of 903 s.

In the case of `O=C(NCCC1=CCCCC1)C(=O)NCC1CCN(S(=O)(=O)C2CC2)CC1`, the RP-LC retention time is 826 s.

The compound `O=C(Nc1ccc(F)cc1Cl)c1cnc(-c2ccccc2)nc1-c1ccncc1` returned an RP-LC retention time of 976 s.

In turn, `O=C(CN1C(=O)C(C(=O)N2CCCC2)Sc2ccccc21)N1CC=C(c2ccccc2)CC1` (centres undefined) gave an RP-LC retention time of 897 s.

As for `O=C1COc2cc(S(=O)(=O)N3CCCC3C(=O)NC3CCCCCCC3)c(Cl)cc2N1` (centres undefined), the RP-LC retention time came to 864 s.

As for `CCCS(=O)(=O)N1C[C@@H](COC)[C@H](c2ccccn2)C1`, the RP-LC retention time is 619 s.

For the compound `CCOc1ccccc1C1C(C(=O)OC)=C(C)NC2=C1C(=O)c1ccccc12` (centres undefined), the RP-LC retention time worked out at 887 s.

Turning to `COc1cc(NC(=O)Cn2nc3nc(N4CCCC4)ccn3c2=O)cc(OC)c1`, the RP-LC retention time amounted to 643 s.

Compound `Cc1ccc(C)c(C(=O)Nc2cccn3cnnc23)c1` showed an RP-LC retention time of 734 s.

Consider `Cc1cc(C)cc(NS(=O)(=O)c2cc3n(c2)CCN(CC(C)C)C3=O)c1`, for which the RP-LC retention time stood at 869 s.
